According to ChEMBL document CHEMBL1201862, “PubChem BioAssay data set” (2004):
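Dose response: 5 concentrations. Exposure: 48 h. Format: 96-well plates. Endpoint: linear interpolation; highest concentration if not reached. GI50 marks 50% less growth.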 The source made the active and inactive calls. Cut-off read from the data, not from the text of the source: active = GI50 up to about 1.1 µM and inactive = higher.

Key:
Test in all cases: growth of human tumour cells (NCI), 48 h
NCI-H226 = test system: NCI-H226
HCT-15 = test system: HCT-15
SF-539 = test system: SF-539
CAKI-1 = test system: CAKI-1
NCI-H522 = test system: NCI-H522
PC-3 = test system: PC-3
MDA-MB-435 = test system: MDA-MB-435
EKVX = test system: EKVX
SK-MEL-2 = test system: SK-MEL-2
SK-MEL-28 = test system: SK-MEL-28
RPMI-8226 = test system: RPMI-8226
SF-268 = test system: SF-268
SK-OV-3 = test system: SK-OV-3
MDA-MB-231 = test system: MDA-MB-231
SNB-75 = test system: SNB-75
HL-60 = test system: HL-60
U-251 = test system: U-251
SF-295 = test system: SF-295
HCT-116 = test system: HCT-116
SR = test system: SR

| Structure (SMILES) | GI50 (NCI-H226) | GI50 (HCT-15) [µM] | GI50 (SF-539) | GI50 (CAKI-1) | GI50 (NCI-H522) | GI50 (PC-3) | GI50 (MDA-MB-435) | GI50 (EKVX) | GI50 (SK-MEL-2) | GI50 (SK-MEL-28) | GI50 (RPMI-8226) | GI50 (SF-268) | GI50 (SK-OV-3) | GI50 (MDA-MB-231) | GI50 (SNB-75) | GI50 (HL-60) | GI50 (U-251) | GI50 (SF-295) | GI50 (HCT-116) | GI50 (SR) |
| --- | --- | --- | --- | --- | --- | --- | --- | --- | --- | --- | --- | --- | --- | --- | --- | --- | --- | --- | --- | --- |
| CCOC(=O)c1c2c(n(Cc3ccccc3)c1C)C(=O)C(=O)c1ccccc1-2 | 0.55 µM (active) | 0.366 | 0.24 µM (active) | 0.5 µM (active) | 0.778 µM (active) | 0.807 µM (active) | 0.0612 µM (active) | 0.726 µM (active) | 1.26 µM (inactive) | 0.177 µM (active) | 0.119 µM (active) | 0.415 µM (active) | 0.61 µM (active) | 0.351 µM (active) | 0.309 µM (active) | 0.0129 µM (active) | 0.263 µM (active) | 0.497 µM (active) | 0.235 µM (active) | – |
| S=C(c1c[nH]c2ccccc12)N1CCCCC1 | > 100 µM (inactive) | 82.2 | > 100 µM (inactive) | > 100 µM (inactive) | – | 49.8 µM (inactive) | 85.5 µM (inactive) | 85.9 µM (inactive) | > 100 µM (inactive) | > 100 µM (inactive) | 36.9 µM (inactive) | > 100 µM (inactive) | > 100 µM (inactive) | > 100 µM (inactive) | – | 70.6 µM (inactive) | 64.9 µM (inactive) | 62.1 µM (inactive) | 95.1 µM (inactive) | > 100 µM (inactive) |
| O=C(O)c1ccc(/C=N\N(CCO)C2=NCCN2)cc1 | > 100 µM (inactive) | > 100 | > 100 µM (inactive) | – | – | > 100 µM (inactive) | > 100 µM (inactive) | > 100 µM (inactive) | > 100 µM (inactive) | > 100 µM (inactive) | > 100 µM (inactive) | > 100 µM (inactive) | > 100 µM (inactive) | > 100 µM (inactive) | 66.5 µM (inactive) | > 100 µM (inactive) | > 100 µM (inactive) | > 100 µM (inactive) | > 100 µM (inactive) | > 100 µM (inactive) |
| COc1nc2ccc(COc3ccc(C(=O)O)cc3)cc2nc1OC | 78 µM (inactive) | 65.6 | 45.5 µM (inactive) | 93.3 µM (inactive) | > 100 µM (inactive) | 71.4 µM (inactive) | 33.7 µM (inactive) | > 100 µM (inactive) | > 100 µM (inactive) | 66.4 µM (inactive) | – | 82 µM (inactive) | > 100 µM (inactive) | > 100 µM (inactive) | 11.7 µM (inactive) | 53.8 µM (inactive) | 87.1 µM (inactive) | 32.9 µM (inactive) | 39.9 µM (inactive) | 41.4 µM (inactive) |
| CC(C)(C)[Si](C)(C)OCC1OC(n2ccc(=O)[nH]c2=O)C(O[Si](C)(C)C(C)(C)C)/C1=N/O (centres undefined) | 2.82 µM (inactive) | 3.26 | 3.11 µM (inactive) | 7.71 µM (inactive) | – | 3.99 µM (inactive) | 3.11 µM (inactive) | 4.13 µM (inactive) | 3.21 µM (inactive) | 3.3 µM (inactive) | 2.73 µM (inactive) | – | 6.41 µM (inactive) | 12.4 µM (inactive) | 18.5 µM (inactive) | – | 4.25 µM (inactive) | 4.74 µM (inactive) | 2.45 µM (inactive) | 2.71 µM (inactive) |
| CC(C)(C)C1=CC(=CC=C2C=CN(CCCCCCCCCCCO)C=C2)C=C(C(C)(C)C)C1=O | – | 2.6 | 2.07 µM (inactive) | 2.48 µM (inactive) | 0.453 µM (active) | 1.69 µM (inactive) | 1.7 µM (inactive) | 1.96 µM (inactive) | 1.83 µM (inactive) | 1.78 µM (inactive) | 0.338 µM (active) | 1.57 µM (inactive) | 2.16 µM (inactive) | 1.63 µM (inactive) | 1.82 µM (inactive) | 1.72 µM (inactive) | 0.782 µM (active) | 1.38 µM (inactive) | 0.951 µM (active) | 0.401 µM (active) |
| C/C(=C1/N=C(c2ccccc2)OC1=O)c1ccc(C)cc1 | > 100 µM (inactive) | > 100 | > 100 µM (inactive) | > 100 µM (inactive) | > 100 µM (inactive) | > 100 µM (inactive) | > 100 µM (inactive) | > 100 µM (inactive) | > 100 µM (inactive) | > 100 µM (inactive) | 74.1 µM (inactive) | > 100 µM (inactive) | > 100 µM (inactive) | > 100 µM (inactive) | – | 45.3 µM (inactive) | > 100 µM (inactive) | > 100 µM (inactive) | > 100 µM (inactive) | > 100 µM (inactive) |
